According to article PMC4658182, “The Synthetic Antimicrobial Peptide 19-2.5 Interacts with Heparanase and Heparan Sulfate in Murine and Human Sepsis” (PLoS ONE, 2015):

Tests used:
[1] = cited from earlier work
Excerpt: Sepsis is a common and life-threatening disease especially in medical and surgical intensive care patients with mortality rates up to 60% [1]. It is characterized by a systemic inflammatory response to infection triggered by both pathogen-associated molecular patterns (PAMPs) as well as endogenous danger-associated molecular patterns (DAMPs). Here, heparan sulfate and the enzyme heparanase play key roles. Heparan sulfates are linear polysaccharides composed of repeating disaccharide subunits, which are D-glucosamine and D-glucuronic acid in their unmodified form. They are attached ...

[2] = Isothermal titration calorimetry, binding to HS-fragments; settings: vs peptide 19–2.5 (Table 2)
Method: Isothermal titration calorimetry (ITC) experiments were performed as previously described. Briefly, the binding of peptide 19–2.5 to heparanase or HS-fragments was recorded by measuring the enthalpy change of the reaction at 37°C. For this, a total of 100 μg/ml heparanase (R&D Systems Europe Ltd., Abingdon, United Kingdom) and 200 μg/ml HS-fragments (H7640 Sigma-Aldrich, St. Louis, MO, USA) were dispersed into the calorimetric cell, and 2 mM peptide 19–2.5 was titrated to this dispersion stepwise in 3 μl portions. After exploring experiments, the concentration of HS was 100 μg/ml titrated with 1.5 μl of peptide 19–2.5 (2 mM) 20 times at 37°C.
Fig 5 Isothermal titration calorimetry (ITC). For the ITC experiments, 2 mM peptide 19–2.5 was titrated to this dispersion stepwise in 3 μl portions into (A) 200 μg/ml heparan sulfate-fragments (HS) and (B) 100 μg/ml heparanase (Hep). In each titration, the resulting heat signals P were recorded (peak downwards are exothermic, peaks upwards endothermic reactions) against time (min) and presented in the top parts of Fig 5A and 5B. The integrated enthalpy changes ΔH versus [peptide]:[HS-fragments] (A) and [peptide]:[heparanase] (B) concentration ratios of the single titrations are illustrated in the bottom parts of Fig 5A and 5B.

[3] = target: heparanase (UniProt Q9Y251); assay: ITC; 2 mM peptide 19-2.5 titrated stepwise in 3 ul portions into 100 ug/ml heparanase in the calorimetric cell, 37 °C
Chain of heparanase (Q9Y251 36-543): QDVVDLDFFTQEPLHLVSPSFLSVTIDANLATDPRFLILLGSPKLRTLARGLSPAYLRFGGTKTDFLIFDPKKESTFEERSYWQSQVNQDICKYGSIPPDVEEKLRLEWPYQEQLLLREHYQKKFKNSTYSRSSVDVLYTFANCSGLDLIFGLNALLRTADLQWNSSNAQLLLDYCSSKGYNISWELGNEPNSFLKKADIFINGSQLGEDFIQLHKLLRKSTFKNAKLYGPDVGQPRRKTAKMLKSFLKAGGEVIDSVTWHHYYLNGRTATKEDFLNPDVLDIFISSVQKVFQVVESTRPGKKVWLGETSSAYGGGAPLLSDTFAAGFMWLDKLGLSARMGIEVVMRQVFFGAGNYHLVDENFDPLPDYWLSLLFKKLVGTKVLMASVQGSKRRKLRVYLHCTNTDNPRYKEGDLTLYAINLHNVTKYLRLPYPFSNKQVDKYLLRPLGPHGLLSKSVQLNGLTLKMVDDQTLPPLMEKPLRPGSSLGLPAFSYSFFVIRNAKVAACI

LL-37: naturally occurring antimicrobial cathelicidin peptide LL-37
neutralization of pro-inflammatory action of PAMPs and DAMPs [1]: neutralizes the pro-inflammatory action of PAMPs and DAMPs
toxicity ([1]; limits therapeutic use): intrinsic toxicity

GCKKYRRFRWKFKGK [peptide 19–2.5gek, peptide variant with the hydrophobic C-terminal of the peptide, FWFWG, removed]
binding constant to HS-fragments on removal of C-terminal FWFWG [2]: dramatically decreases

GCKKYRRFRWKFKGKFWFWG [synthetic antimicrobial peptide 19-2.5]
dH (at the beginning of the titration) [3]: -5.98 kcal/mol
